What was measured:
[1] = target: EcTrxR-mCherry (TrxR-mCherry); E. coli thioredoxin reductase (Escherichia coli, UniProt P0A9P4); assay: UV-Vis absorbance of purified protein; format: binding; settings: 50 mM phosphate pH 7.5, 1 mM EDTA; bound as purified
[2] = target: T1, LipDH-mCherry; yeast lipoamide dehydrogenase (Saccharomyces cerevisiae, UniProt P09624); assay: UV-Vis absorbance of purified protein; format: binding; settings: 50 mM phosphate pH 7.5, 1 mM EDTA; bound as purified
T1 sequence (P09624 22-499): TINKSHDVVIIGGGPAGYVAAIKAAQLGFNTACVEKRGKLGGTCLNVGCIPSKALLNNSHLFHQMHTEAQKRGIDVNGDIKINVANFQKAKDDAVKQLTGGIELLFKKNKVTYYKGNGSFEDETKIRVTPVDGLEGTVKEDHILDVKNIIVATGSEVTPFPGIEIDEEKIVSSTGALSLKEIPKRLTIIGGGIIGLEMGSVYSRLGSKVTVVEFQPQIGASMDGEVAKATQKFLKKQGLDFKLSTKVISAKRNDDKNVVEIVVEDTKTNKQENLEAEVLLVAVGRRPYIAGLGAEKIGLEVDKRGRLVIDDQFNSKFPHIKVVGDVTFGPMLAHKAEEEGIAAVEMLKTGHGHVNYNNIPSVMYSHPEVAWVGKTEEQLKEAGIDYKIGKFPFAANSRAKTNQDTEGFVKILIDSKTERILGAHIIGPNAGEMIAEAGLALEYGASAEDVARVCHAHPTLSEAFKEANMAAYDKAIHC

[3] = target: T1, LipDH-mCherry; yeast lipoamide dehydrogenase; assay: quenching of flavin fluorescence; format: biochemical; settings: 1 uM probe, 100 uM NADPH; poor substrate

Chain of EcTrxR-mCherry (TrxR-mCherry); E. coli thioredoxin reductase (P0A9P4 2-321): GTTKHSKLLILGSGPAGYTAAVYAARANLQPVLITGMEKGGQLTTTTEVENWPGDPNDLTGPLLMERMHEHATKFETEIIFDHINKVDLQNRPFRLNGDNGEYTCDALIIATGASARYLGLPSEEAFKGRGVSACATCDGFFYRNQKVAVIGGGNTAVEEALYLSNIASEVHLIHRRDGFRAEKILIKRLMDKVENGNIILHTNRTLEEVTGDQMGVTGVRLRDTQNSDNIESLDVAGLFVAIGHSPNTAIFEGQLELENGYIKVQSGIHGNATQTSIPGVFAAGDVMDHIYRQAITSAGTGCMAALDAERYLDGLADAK

Cc1cc2nc3c(=O)[nH]c(=O)nc-3n(C[C@H](O)[C@H](O)[C@H](O)COP(=O)(O)OP(=O)(O)OC[C@H]3O[C@@H](n4cnc5c(N)ncnc54)[C@H](O)[C@@H]3O)c2cc1C [FAD]
UV-Vis absorbance of purified protein [1]: found to contain the expected complement of flavin and mCherry
UV-Vis absorbance of purified protein [2]: purified construct contained the expected complement of flavin and mCherry absorbance contributions

NC(=O)C1=CN([C@@H]2O[C@H](COP(=O)(O)OP(=O)(O)OC[C@H]3O[C@@H](n4cnc5c(N)ncnc54)[C@H](OP(=O)(O)O)[C@@H]3O)[C@@H](O)[C@H]2O)C=CC1 [NADPH]
quenching of flavin fluorescence (456/520 nm) on reduction [3]: the probe responds slowly to this pyridine nucleotide

— article PMC5820181 (Biochemistry, 2018)
